Measured values published in paper PMC8002072, “A Novel Vasoactive Peptide “PG1” from Buffalo Ice-Cream Protects from Angiotensin-Evoked High Blood Pressure” (Antioxidants, 2021).
Where a SMILES comes first, the peptide text is derived from it.

Assays:
[1] = system: Caco-2 cell monolayers; assay: Caco-2 cell monolayers permeation experiments; assay type: in vitro ADME, human
Procedure: (§2) The colorectal adenocarcinoma (Caco-2) cell line was purchased from ATCC (Rockville, MD, USA). Cells were cultured in DMEM high glucose (4.5 g/L) with 2 mM L-glutamine and 10% (v/v) heat-inactivated fetal bovine serum. Cells were maintained at 37 °C in a humidified 5% CO2 atmosphere. Differentiation experiments were performed in a 12-well multiwell in transwell inserts (PET membrane, 0.4 µm pore size, 0.30 cm^2 surface area), plating Caco-2 at 2.6 × 10^5 cells/cm^2 for 21 days in complete medium, changed every other day.
(§3) The integrity of the monolayers was evaluated by means of the transepithelial electrical resistance (TEER) measurement using an EVOM2 epithelial voltohmmeter (World Precision Instruments, Sarasota, FL, USA). […] For the permeation assays, only intact monolayers with TEER higher than 300 Ω × cm^2 were used. In brief, PET membranes were washed for 15–20 min at 37 °C with pre-warmed Hank’s balanced salt solution (HBSS) buffered with 25 mM HEPES and NaHCO3 (0.35 g/L) to adjust pH at 7.4, or with 10 mM methanesulfonic acid to adjust pH at 6.5. HBSS was added both to the apical (0.3 mL) and to the basolateral (0.9 mL) transwell compartments, as previously described [22].
(§4) For transport experiments, donor solution containing PG1 peptide was added to the apical compartment. […]
(§5) The apparent permeability coefficient (Papp) was calculated according to the Equation (1). The donor concentration was recalculated by subtracting the cumulative amount transported to the receiver chamber for each time interval:(1) CD(ti)=CD(ti−1)−CRti−f×CRti−1×VR/VD CD (ti) and CR (ti) (μM): donor and receiver chamber concentrations calculated at each sample occasion (i) from the donor and receiver concentrations at the previous occasion CD (ti−1) and CR (ti−1), respectively; f = 1 − VS/VR: sample replacement dilution factor; VS (cm^3): sample volume; VR (cm^3): receiver chamber volume; VD (cm^3): donor chamber volume.

[2] = Chemical stability in simulated enteric lumen; assay type: physicochemical; settings: 5 µM peptide, 10 mM HCOONH4 pH 7.5, 37 °C, 3 h, mass spectrometry
Procedure: In order to determine pharmacokinetic properties of a synthetic peptide, we have evaluated its chemical stability during in vitro simulated GI digestion. In detail, we have recreated the enteric lumen by alkalinization at pH = 7.5 with 10 mM HCOONH4 buffer.
(§1) The peptide (5 µM) was incubated for 3 h and monitored by mass spectrometry experiments. On the other hand, the assessment of PG1 enzymatic stability was performed by treating the peptide with digestive enzymes. In detail, pentapeptide was incubated with pancreatin (from the porcine pancreas), chymotrypsin (from bovine pancreas) and bile salts. Digestive reactions were carried out at 37 °C for 180 min with 1:10 or 1:100 peptide/enzyme ratio, w/w. Finally, the mixture was centrifuged at 4000× g at 4 °C for 10 min, and PG1 peptide was collected at time 0 and at the end of the experiment and then analyzed by LC-MS/MS for the mass balance calculation.

[3] = Caco-2 cell monolayers permeation experiments; assay type: in vitro ADME, human; settings: human; Caco-2 monolayers, HBSS, 180 min, UHPLC-MS/MS; read-out: efflux ratio (Papp,b/a/Papp,a/b)
Procedure: as §2, §3, §4, §5

[4] = system: pancreatin (from the porcine pancreas), chymotrypsin (from bovine pancreas); assay: Enzymatic stability with digestive enzymes; assay type: in vitro ADME; settings: chymotrypsin and bile salts, peptide/enzyme 1:10 or 1:100 w/w, 37 °C, 180 min, LC-MS/MS
Procedure: as §1

[5] = Microsomal stability assay; assay type: in vitro ADME; settings: human microsomes 20 mg/mL stock (5 μL in 200 µL), PG1 1 mM stock (2 μL), 100 mM phosphate buffer pH 7.4, 5 min pre-incubation, NADPH, 37 °C, 60 min, LC-MS/MS; mean ± SEM; read-out: parent compound turnover percentage
Procedure: 2 μL of PG1 peptide (1 mM) were incubated with 183 µL of 100 mM phosphate buffer (pH 7.4), and 5 μL of 20 mg/mL human microsomes (Thermo Fisher Scientific, Bremen, Germany). After pre-incubation in a water bath for 5 min, the mixture was added with 10 μL of the 20 mM NADPH at further incubated at 37 °C for 60 min. The reaction was stopped with ice-cold methanol, centrifuged at 10,000 rpm at room temperature for 5 min and analyzed by LC-MS/MS. Three controls were used: T0 reference was obtained stopping the microsomal reaction by addition of the organic solvent immediately after incubation with microsomes. As positive and negative controls were used testosterone and PG1 solution incubated without NADPH. The extent of metabolism is expressed as a percentage of the parent compound turnover using the following equation:(2) % Parent compound turnover = 100 − [concentration at 60 min/concentration at 0 min × 100]

[6] = Serum concentration of PG1 in treated mice; assay type: in vivo; settings: mouse, mice treated with PG1 (10 mg/Kg daily), ACN/0.1% TFA extraction, LC-MS/MS, LOQ 8.6 pM, mean ± SEM, read-out: serum concentration of pentapeptide
Procedure: For the determination of serum concentration of pentapeptide in mice treated with PG1, blood samples were taken from the ventricle, performing a slow withdrawal to prevent the heart collapsing, to obtain a large quantity of high-quality blood. After collection, samples were rapidly centrifuged at 800 g to separate and collect serum. Extraction was conducted with ice-cold ACN plus 0.1% TFA (100 µL serum + 200 µL ACN). Samples were vortexed for 30 s and then centrifuged for 5 min at 10,000 rpm (Eppendorf Centrifuge model 5425). The supernatant was dried under nitrogen steam and reconstituted in 50:50 H2O/ACN. Calibration curve prepared by serial dilution of synthetic peptide solubilized in water in over the range 200–10 pM (y = 0.0167x + 0.7127, R^2 = 0.9998, LOD = 2.8 pM, LOQ = 8.6 pM).

[7] = system: Caco-2 cell monolayers; assay: Caco-2 monolayer integrity (zonulin-1 immunofluorescence) and cell vitality; assay type: cell-based, human; settings: PG1 25 μM, 3 h; zonulin-1 expression and cell vitality (crystal violet); Figure S2
Procedure: To evaluate the effect of PG1 peptide on colorectal adenocarcinoma (Caco-2) cells, the cells were plated in 48-well plates at a density of 36 × 10^3 cells/well. After 24 h, the Hanks’ Balanced Salt solution containing PG1 peptide at the indicated concentrations was added to the wells. The cells were examined after 3 h through microscope analysis. Finally, cells’ viability was assessed by the use of Crystal Violet Staining Solution.
All experiments were performed in triplicate, and the relative cell viability was expressed as a percentage in comparison with the untreated control cells.
Integrity of monolayers was evaluated at the end of transport experiments fixing the PET membranes with 4% paraformaldehyde (PFA) for 15 min after a wash with PBS. Membranes were then incubated with blocking solution (0.1% Triton, 1% BSA, 0.02% sodium azide, 50 mM ammonium chloride) for 20 min at room temperature in the dark, followed by incubation with anti-zonulin 1 antibody (#402200, Invitrogen, Thermo Fisher Scientific, Waltham, MA, USA) at 2 μg mL^−1 (RT, 2 h). […] Slides were examined under a Nikon fluorescence inverted microscope (Nikon Instruments Europe, Firenze, Italy) and analyzed as described.
Figure S2. (A) Fluorescence micrograph of the Caco-2 cell monolayers. […]
Original magnification 200X. […] Results are expressed as mean (± SD), and are representative of three independent experiments. […]

apparent permeability coefficient (Papp) of monolayer control ([1]; Caco-2 monolayers 21 days, transwell, HBSS, LC-MS/MS (SRM), integrity/reference marker) | chemical stability [2] | dependence of transmembrane uptake on proton gradient ([1]; Caco-2 monolayers, HBSS pH 7.4 or pH 6.5) | efflux ratio at 180 min [3] | enzymatic stability (hydrolysis) [4] | metabolised at 1 h, 10 µM [5] [%] | level at time molar [6] [nM] | Caco-2 cell monolayers integrity [7] | SMILES
8.05 ± 0.16 × 10^−5 cm/s |  |  |  |  |  |  |  | CC(C)NCC(O)COc1cccc2ccccc12 (centres unmarked) [propranolol, reference compound]
 | high peptide stability for up to 3 h | independent of the proton gradient | < 1 | not hydrolysed | ~13.2 | ~0.017 | preserved | CSCC[C@H](NC(=O)[C@@H]1CCCN1C(=O)[C@H](CCC(=O)O)NC(=O)[C@H](CCCCN)NC(=O)[C@@H](N)CCC(N)=O)C(=O)O [PG1, Gln-Lys-Glu-Pro-Met] (H-QKEPM-OH)
